Measurements: ChEMBL document CHEMBL2203270, “POMA analyses as new efficient bioinformatics' platform to predict and optimise bioactivity of synthesized 3a,4-dihydro-3H-indeno[1,2-c]pyrazole-2-carboxamide/carbothioamide analogues” (Bioorg Med Chem Lett, 2012)
In brackets after ≈: the same amount, converted by molar mass.

Tests used:
[1] = tested on: Human immunodeficiency virus 2; assay: Antiviral activity against HIV-2 ROD infected in MT4 cells assessed as protection against virus-induced cytopathicity relative to control; format: functional; conditions: Human immunodeficiency virus 2, ISOLATE ROD
Candida albicans = assay: Antimicrobial activity against Candida albicans NCIM 3471 by broth dilution technique; format: functional
[2] = tested on: Human immunodeficiency virus 1; assay: Antiviral activity against HIV-1 3B infected in MT4 cells assessed as protection against virus-induced cytopathicity relative to control; format: functional; conditions: Human immunodeficiency virus 1, 3B
[3] = tested on: Human immunodeficiency virus 2; assay: Antiviral activity against HIV-2 ROD infected in MT4 cells assessed as inhibition of virus-induced cytopathicity; format: functional, organism-based; conditions: Human immunodeficiency virus 2, ISOLATE ROD
[4] = Cytotoxicity against mock-infected human MT4 cells assessed as decrease in cell viability by MTT assay; format: cell-based
Bacillus subtilis = assay: Antimicrobial activity against Bacillus subtilis NCIM 2439 by broth dilution technique; format: functional
Aspergillus niger = assay: Antimicrobial activity against Aspergillus niger NCIM 1196 by broth dilution technique; format: functional
Pseudomonas aeruginosa = assay: Antimicrobial activity against Pseudomonas aeruginosa ATCC 10145 by broth dilution technique; format: functional
[5] = tested on: Human immunodeficiency virus 1; assay: Antiviral activity against HIV-1 3B infected in MT4 cells assessed as inhibition of virus-induced cytopathicity; format: functional, organism-based; conditions: Human immunodeficiency virus 1, 3B
Escherichia coli = assay: Antimicrobial activity against Escherichia coli NCIM 5051 by broth dilution technique; format: functional
Staphylococcus aureus = assay: Antimicrobial activity against Staphylococcus aureus NCIM 2079 by broth dilution technique; format: functional

SMILES	MIC (Candida albicans)	IC50 [3]	MIC (Bacillus subtilis)	MIC (Aspergillus niger)	MIC (Pseudomonas aeruginosa)	IC50 [5]	MIC (Escherichia coli)	MIC (Staphylococcus aureus)	Emax [1]	MFC (Candida albicans)	Emax [2]	CC50 [4]	MBC (Bacillus subtilis)	MFC (Aspergillus niger)	MBC (Pseudomonas aeruginosa)	MBC (Escherichia coli)	MBC (Staphylococcus aureus)
COc1ccc(C2C3Cc4cc(OC)c(OC)cc4C3=NN2C(=O)Nc2ccc(C)cc2C)cc1OC (stereo unspecified)		> 145 µM				> 145 µM			16%		16%	145 µM					
COc1cc2c(cc1OC)C1=NN(C(N)=O)C(c3ccccc3)C1C2 (stereo unspecified)	128 µg/mL (≈ 379 µM)	> 259 µM	256 µg/mL (≈ 759 µM)	256 µg/mL (≈ 759 µM)	256 µg/mL (≈ 759 µM)	> 259 µM	256 µg/mL (≈ 759 µM)	256 µg/mL (≈ 759 µM)	11%	> 512 µg/mL	2%	259 µM	> 512 µg/mL	> 512 µg/mL	> 512 µg/mL	> 512 µg/mL	> 512 µg/mL
COc1ccc(C2C3Cc4cc(OC)c(OC)cc4C3=NN2C(=O)Nc2ccc(Br)cc2)cc1OC (stereo unspecified)		> 150 µM				> 150 µM			39%		15%	150 µM					
COc1ccc(C2C3Cc4cc(OC)c(OC)cc4C3=NN2C(N)=O)cc1 (stereo unspecified)	2 µg/mL (≈ 5.44 µM)	> 150 µM	128 µg/mL (≈ 348 µM)	4 µg/mL (≈ 10.9 µM)	64 µg/mL (≈ 174 µM)	> 150 µM	32 µg/mL (≈ 87.1 µM)	64 µg/mL (≈ 174 µM)	6%	2 µg/mL (≈ 5.44 µM)	3%	150 µM	> 512 µg/mL	8 µg/mL (≈ 21.8 µM)	> 512 µg/mL	> 512 µg/mL	> 512 µg/mL
COc1ccc(C2C3Cc4cc(OC)c(OC)cc4C3=NN2C(=O)Nc2ccc(F)cc2)cc1OC (stereo unspecified)		> 208 µM				> 208 µM			37%		11%	208 µM					
COc1ccc(C2C3Cc4cc(OC)c(OC)cc4C3=NN2C(=O)Nc2c(C)cccc2C)cc1 (stereo unspecified)		> 169 µM				> 169 µM			6%		5%	169 µM					
COc1cc2c(cc1OC)C1=NN(C(=O)Nc3c(C)cccc3C)C(c3ccccc3)C1C2 (stereo unspecified)		> 211 µM				> 211 µM			12%		4%	211 µM					
Cc1cn([C@H]2C[C@H](N=[N+]=[N-])[C@@H](CO)O2)c(=O)[nH]c1=O [ZIDOVUDINE]									66%		90%	> 93.5 µM					

Continued, in another order:

MIC (Candida albicans)	IC50 [3]	MIC (Bacillus subtilis)	MIC (Aspergillus niger)	MIC (Pseudomonas aeruginosa)	IC50 [5]	MIC (Escherichia coli)	MIC (Staphylococcus aureus)	SMILES	Emax [1]	MFC (Candida albicans)	Emax [2]	CC50 [4]	MBC (Bacillus subtilis)	MFC (Aspergillus niger)	MBC (Pseudomonas aeruginosa)	MBC (Escherichia coli)	MBC (Staphylococcus aureus)
256 µg/mL (≈ 757 µM)	> 40.4 µM	16 µg/mL (≈ 47.3 µM)	256 µg/mL (≈ 757 µM)	16 µg/mL (≈ 47.3 µM)	> 40.4 µM	8 µg/mL (≈ 23.6 µM)	16 µg/mL (≈ 47.3 µM)	COc1cc2c(cc1OC)C1=NN(C(N)=O)C(c3ccncc3)C1C2 (stereo unspecified)	5%	> 512 µg/mL	4%	40.4 µM	> 512 µg/mL	> 512 µg/mL	> 512 µg/mL	> 512 µg/mL	> 512 µg/mL
	> 29.5 µM				> 29.5 µM			COc1cc2c(cc1OC)C1=NN(C(=O)Nc3ccc(F)c(Cl)c3)C(c3ccncc3)C1C2 (stereo unspecified)	2%		4%	29.5 µM					
	> 33.4 µM				> 33.4 µM			COc1cc2c(cc1OC)C1=NN(C(=O)Nc3ccc(C)cc3C)C(c3ccccc3)C1C2 (stereo unspecified)	7%		5%	33.4 µM					
	> 9.09 µM				> 9.09 µM			COc1cc2c(cc1OC)C1=NN(C(=O)Nc3ccc(F)cc3)C(c3ccccc3Cl)C1C2 (stereo unspecified)	1%		2%	9.09 µM					
	> 108 µM				> 108 µM			COc1cc2c(cc1OC)C1=NN(C(=O)Nc3ccc(Br)cc3)C(c3ccc(F)cc3)C1C2 (stereo unspecified)	16%		8%	108 µM					
	> 28.4 µM				> 28.4 µM			COc1cc2c(cc1OC)C1=NN(C(=O)Nc3ccc(Cl)cc3)C(c3ccccc3)C1C2 (stereo unspecified)	19%		2%	28.4 µM					
	> 31.9 µM				> 31.9 µM			COc1cc2c(cc1OC)C1=NN(C(=O)Nc3ccc(F)cc3)C(c3ccncc3)C1C2 (stereo unspecified)	2%		2%	31.9 µM					
	> 68.6 µM				> 68.6 µM			COc1cc2c(cc1OC)C1=NN(C(=O)Nc3ccc(F)cc3)C(c3ccccc3)C1C2 (stereo unspecified)	7%		3%	68.6 µM					
128 µg/mL (≈ 361 µM)	> 36.9 µM	32 µg/mL (≈ 90.3 µM)	128 µg/mL (≈ 361 µM)	32 µg/mL (≈ 90.3 µM)	> 36.9 µM	32 µg/mL (≈ 90.3 µM)	32 µg/mL (≈ 90.3 µM)	COc1cc2c(cc1OC)C1=NN(C(N)=S)C(c3ccncc3)C1C2 (stereo unspecified)	3%	> 512 µg/mL	2%	36.9 µM	> 512 µg/mL	> 512 µg/mL	> 512 µg/mL	> 512 µg/mL	> 512 µg/mL
